The values that follow come from patent US12187624B2, “Method of acylating amino acids and uses of N-acyl amino acid products” (NewSouth Innovations Pty Limited, priority 2019, dated 2025).

Where “and” joins values, the source holds several entries; their conditions need not be identical. Equal values may be shown once.

A short description of data set [1]: Critical micelle concentration (CMC) from conductivity versus surfactant concentration. It counts as physicochemical. Here is the method:
The CMC of N-octanoyl-cys prepared by this method was determined to be 0.1M. The CMC was determined using a Bench-Top water quality meter, SPER SCIENTIFIC Instrument model 860033 to measure the conductivity and pH of the surfactant solution. The CMC value of the surfactant was measured by plotting conductivity values versus different surfactant concentrations at pH 9 by adding NaOH solution (0.1 mol L^−1) and 25.0° C. The CMC was obtained as the point of sharp transition in the slope of conductivity with increasing surfactant concentration (data not shown).
The CMC of the N-octanoyl-cys surfactant prepared by Exemplary method 1, in Na^+ form at pH 8, was determined (as reported above for Comparative method 1 above from measurements of the electrical conductivity with surfactant concentration) to be about 0.09 mol/L, see FIG. 3.
The same protocols as described above were used to determine the CMC and melting point of the twice-recrystallised N-octyl-cysteine surfactant. The values measured were 0.1M and 145° C., respectively. These values are consistent with literature values.

Data set [2] can be described thus: Foaming test of surfactant solutions at different pH. As to conditions: Csurfactant = 0.01M; solutions at pH 3, 6, 9, 12 (FIG. 6). It counts as physicochemical. The text has this: FIG. 6 is a pair of photos from the foaming test described in Example 2; the first photo (upper) is a photo of N-octanoyl cysteine solutions at: pH 3 (far left), pH 6 (middle left), pH 9 (middle right) and pH 12 (far right) and the second photo (lower) is a photo of N-octyl cysteine solutions at: pH 3 (far left), pH 6 (middle left), pH 9 (middle right) and pH 12 (far right). (Csurfactant=0.01M and the pH adjusted with […]).

Data set [3] in a line: Ion flotation of Cd solution in air bubble column, ICP-MS analysis. The settings on record: Csurfactant = 0.01M. Here is the method: (§1) In a model experiment, 0.01M of the N-octanoyl-cys surfactant was dissolved (with heating around 65° C. while stirring) in a 5 mg L^−1 solution (i.e. 5 ppm) of Cd containing 0.1 M NaOH and finally made up to 100 ml using Milli-Q water, with the pH of around 8.
(§2) The solution was then poured into a column (with 30 cm height and 3 cm diameter) while a 2 L/min flow of air gas was passed through it with air pump (Hiblow HP40, Philippines). Two samples were taken after each of 30 and 60 minutes from around 2 cm top of the sinter, and the Cd concentrations of each sample was determined by ICP-MS analysis. The upper-outlet foam was also collected in a waste container using an outlet tube.
The same procedure was used with the N-octyl-cys surfactant in the flotation experiment, but where the pH of the solution was increased to 12, to enable this surfactant to successfully produce a foam (this difference is discussed later).

The conditions of data set [4]: cited from earlier work.
Data set [5] in a line: Ion flotation of calcium solution in air bubble column, ICP-MS analysis. Here is the method:
as §1, §2
In the second series of ion flotation experiments, N-octanoyl-cys surfactant (obtained by Exemplary method 1) was used for removing calcium ions using air in the ion flotation process.

The mark [6] stands for this setting: pH 12, Ccalcium = 5 mg L^−1, Csurfactant = 0.01M, air bubbles.

As to N-octyl-cysteine [reference compound], in data set [1] (twice-recrystallised surfactant, same protocols as for N-octanoyl-cys), the CMC amounted to 0.1 M.
Take `CCCCCCCC(=O)N[C@@H](CS)C(=O)O` [N-octanoyl-cys, N-octanoyl-cysteine]: in data set [2], the “pH at which the surfactant starts foaming (foaming point)” value is around 6. The “Adsorption (%) After 60 min” value in data set [3] (operating pH 8, 5 mg L^−1 Cd, listed as N-octanoyl-cys (Comparative method 1)) is 99.2%; in data set [3] (operating pH 8, 5 mg L^−1 Cd, listed as N-octanoyl-cys (Exemplary method 1)), 99.8%; in data set [3] (operating pH 12, 5 mg L^−1 Cd) it was 12.3%; in data set [5] (pH 8, Ccalcium = 5 mg L^−1, Csurfactant = 0.01M), 97% and 97.3%. For the same compound, the CMC in data set [1] (N-octanoyl-cys prepared by Comparative method 1, pH 9 (NaOH), 25.0° C.) is 0.1 M; in data set [1] (prepared by Exemplary method 1, in Na+ form at pH 8), “about 0.09 mol/L”. For the same compound, the “pKa of the amide group (protonation)” value in data set [4] is listed as “around −0.5”. In addition, the “C(mg L^−1) (RSD %) After 30 min” value in data set [5] (pH 8, Ccalcium = 5 mg L^−1, Csurfactant = 0.01M, air bubbles) is on record as 0.72 (42.02) mg L^−1.
In the case of `CCCCCCCCN[C@@H](CS)C(=O)O` [N-octyl-cys, N-octyl-cysteine], the “pH at which the surfactant starts foaming (foaming point)” value in data set [2] was above 12. For the same compound, the “Adsorption (%) After 60 min” value in data set [3] (operating pH 12, 5 mg L^−1 Cd) was 14.2%; in data set [5] (pH 12, Ccalcium = 5 mg L^−1, Csurfactant = 0.01M) it was 14% and 14.6%. In data set [4], the “pKa of the amine group (protonation)” value is listed as “about 10.7”. Moreover, in data set [5] (setting [6]), the “C(mg L^−1) (RSD %) After 30 min” value is reported as 4.89 (0.87) mg L^−1. In addition, in data set [5] (setting [6]), the “C(mg L^−1) (RSD %) After 60 min” value is 4.27 (3.31) mg L^−1.
